Reference: patent publication US20130165483A1, “HETEROARYLS AND USES THEREOF” (MILLENNIUM PHARMACEUTICALS, INC., priority 2011, published 2013)
pIC50: −log10 of the molar value.

Target: T1, VPS34 (Homo sapiens, UniProt Q8NEB9)
T1 construct: GST (N); host or cells: SF9 insect cells (baculovirus)
Assay: Human VPS34 enzyme assay (Adapta TR-FRET)
Type: biochemical
Conditions: for inhibition at 1.11 µM: 1 h, at a 1.11 μM concentration, read-out: VPS34 Percent Inhibition; for pIC50: VPS34 enzyme
Method: VPS34 (accession number GB:BC033004) was cloned into pDEST20-Thombin as N-terminal GST tagged fusion proteins using the Gateway system (Invitrogen, catalog#11804-013). The sequences were verified before recombinant protein expression using the Baculovirus Expression System with Gateway® Technology.
For expression VPS34 was infected at 1MOI in SF9 cells and harvested 72 hours post infection.
For purification, VPS34 is purified by Glutathione Sepharose 4 Fast Flow (GE Healthcare #17-5132-03) followed by HiTrap Q (GE Healthcare #17-1153-01).
Human VPS34 enzyme assay method
100mL compounds in DMSO are added to wells of a 384 well microtitre plate (Greiner 780076). At room temperature: 5ul VPS34 reaction buffer (Invitrogen Assay Buffer Q (diluted 1 in 5 with nanopure water) plus 2 mM DTT and 2 mM MnCl2) containing ATP (20 uM, Promega) and 200 uM PI—PS substrate (Invitrogen PV5122) is added followed immediately by 5ul VPS34 reaction buffer (as above) containing VPS34 (5 nM, Millennium Protein Sciences Group) and the mixture is incubated with shaking at room temperature for 1 hour. Then 5ul VPS34 stop-detect mix (as per Invitrogen Adapta Assay kit (PV5009) instructions (contains kinase quench buffer, TR-FRET buffer, Adapta Eu anti-ADP antibody and Alexa Fluor 647 ADP tracer)) is added to quench the reaction. The plates are then incubated for 30 minutes at room temperature with shaking and then read on a BMG PheraStar Plus reader.
For the assay methods described above, test compound percent inhibition, at various concentrations, is calculated relative to control (DMSO and EDTA) treated samples. Compound concentration versus percent inhibition curves are fitted to generate IC50 values. One skilled in the art will appreciate that the values generated either as percentage inhibition at a single concentration or IC50 values are subject to experimental variation.

T1 sequence (Q8NEB9 whole entry): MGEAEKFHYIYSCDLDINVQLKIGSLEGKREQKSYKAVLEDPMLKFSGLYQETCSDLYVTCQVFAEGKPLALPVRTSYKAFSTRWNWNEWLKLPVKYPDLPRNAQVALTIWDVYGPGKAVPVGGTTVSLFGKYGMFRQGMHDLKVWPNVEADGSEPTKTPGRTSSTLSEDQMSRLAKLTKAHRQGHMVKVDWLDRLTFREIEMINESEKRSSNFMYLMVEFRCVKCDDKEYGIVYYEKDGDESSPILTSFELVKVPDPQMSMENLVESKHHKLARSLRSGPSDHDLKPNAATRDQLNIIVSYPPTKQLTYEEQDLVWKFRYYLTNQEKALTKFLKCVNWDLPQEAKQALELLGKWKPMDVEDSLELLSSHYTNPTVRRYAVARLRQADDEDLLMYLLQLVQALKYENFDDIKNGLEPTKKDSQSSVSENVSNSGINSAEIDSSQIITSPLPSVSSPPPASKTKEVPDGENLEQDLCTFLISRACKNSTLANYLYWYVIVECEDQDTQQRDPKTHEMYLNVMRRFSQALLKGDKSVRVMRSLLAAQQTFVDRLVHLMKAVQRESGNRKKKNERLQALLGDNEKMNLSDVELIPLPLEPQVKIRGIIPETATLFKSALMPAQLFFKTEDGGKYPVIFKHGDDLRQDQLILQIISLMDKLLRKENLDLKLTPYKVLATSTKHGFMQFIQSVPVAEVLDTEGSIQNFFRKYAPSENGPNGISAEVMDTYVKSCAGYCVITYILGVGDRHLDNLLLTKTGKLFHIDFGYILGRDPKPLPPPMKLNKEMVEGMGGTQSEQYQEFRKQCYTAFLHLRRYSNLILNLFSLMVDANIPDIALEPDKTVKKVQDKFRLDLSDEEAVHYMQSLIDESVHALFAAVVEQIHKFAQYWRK

Row | Compound | inhibition at 1.11 µM | pIC50
1 | CC(=O)Nc1cc(-c2cc(-c3ccccc3Cl)n(-c3nccs3)n2)ccn1 [I-3, N-[4-[5-(2-chlorophenyl)-1-(1,3-thiazol-2-yl)-1H-pyrazol-3-yl]pyridin-2-yl]acetamide] | 6% | 5.00 to 6.00
2 | CC(=O)Nc1cc(-c2cc(C(N)=O)n(-c3ccccc3Cl)n2)ccn1 [I-14, 3-(2-acetamidopyridin-4-y1)-1-(2-chlorophenyl)-1H-pyrazole-5-carboxamide] | 45% | 5.00 to 6.00
3 | CC(=O)Nc1cc(-c2cc(-c3nnc[nH]3)n(-c3ccc(Cl)cc3Cl)n2)ccn1 [I-15, N-{4-[1-(2,4-dichlorophenyl)-5-(4H-1,2,4-triazol-3-yl)-1H-pyrazol-3-yl]pyridin-2-yl}acetamide] | > 99% | > 7.00
4 | CC(=O)Nc1cc(-c2cc(-c3nnc[nH]3)n(-c3ccccc3Cl)n2)ccn1 [I-21, N-{4-[1-(2-chlorophenyl)-5-(1H-1,2,4-triazol-3-yl)-1H-pyrazol-3-yl]pyridin-2-yl}acetamide] | 96% | 6.00 to 7.00
5 | CCn1cc(-c2nnc[nH]2)cc1-c1ccnc(NC(C)=O)c1 [I-86, N-{4-[1-ethyl-4-(4H-1,2,4-triazol-3-yl)-1H-pyrrol-2-yl]pyridin-2-yl}acetamide] | > 99% | 6.00 to 7.00
6 | CC(=O)Nc1cc(-c2cc(-c3nnc[nH]3)cn2CC2CC2)ccn1 [I-87, N-{4-[1-(cyclopropylmethyl)-4-(4H-1,2,4-triazol-3-yl)-1H-pyrrol-2-yl]pyridin-2-yl}acetamide] | 93% | 6.00 to 7.00
7 | C=CCn1cc(-c2cc(NC(=O)C3CC3)ncc2C)cc1-c1nc[nH]n1 [I-88, N-{4-[1-allyl-5-(1H-1,2,4-triazol-3-yl)-1H-pyrrol-3-yl]-5-methylpyridin-2-yl}cyclopropanecarboxamide] | 69% | > 7.00
8 | CC(=O)Nc1cc(-c2cc(C(N)=O)n(-c3ccc(N)cc3Cl)c2)c(C)cn1 [I-89, 4-(2-acetamido-5-methylpyridin-4-yl)-1-(4-amino-2-chlorophenyl)-1H-pyrrole-2-carboxamide] | > 99% | > 7.00
9 | CC(=O)Nc1cc(-c2cc(C(N)=O)n(-c3ncccc3Cl)c2)c(C)cn1 [I-90, 4-(2-acetamido-5-methylpyridin-4-yl)-1-(3-chloropyridin-2-yl)-1H-pyrrole-2-carboxamide] | 39% | 5.00 to 6.00
10 | CC(=O)Nc1cc(-c2cc(-c3nnc[nH]3)n(CC3CC3)c2)c(C)cn1 [I-91, N-{4-[1-(cyclopropylmethyl)-5-(4H-1,2,4-triazol-3-yl)-1H-pyrrol-3-yl]-5-methylpyridin-2-yl}acetamide] | > 99% | > 7.00
11 | CC(=O)Nc1cc(-c2cc(C(N)=O)n(CC3CC3)c2)c(C)cn1 [I-92, 4-(2-acetamido-5-methylpyridin-4-yl)-1-(cyclopropylmethyl)-1H-pyrrole-2-carboxamide] | 68% | 6.00 to 7.00
12 | CC(=O)Nc1cc(-c2cc(-c3nc[nH]n3)n(-c3ccccc3Cl)c2)c(C)cn1 [I-93, N-{4-[1-(2-chlorophenyl)-5-(1H-1,2,4-triazol-3-yl)-1H-pyrrol-3-yl]-5-methylpyridin-2-yl}acetamide] | > 99% | > 7.00
13 | CCCn1cc(-c2cc(NC(=O)C3CC3)ncc2C)cc1-c1nc[nH]n1 [I-94, N-{5-methyl-4-[1-propyl-5-(4H-1,2,4-triazol-3-yl)-1H-pyrrol-3-yl]pyridin-2-yl}cyclopropanecarboxamide] | > 99% | 6.00 to 7.00
14 | CC(=O)Nc1cc(-c2cc(C(N)=O)c(-c3ccnc(NC(C)=O)c3)n2C)ccn1 [I-95, 2,5-bis(2-acetamidopyridin-4-yl)-1-methyl-1H-pyrrole-3-carboxamide] | 18% | 5.00 to 6.00
15 | CC(=O)Nc1cc(-c2cc(-c3nc[nH]n3)n(-c3ncccc3Cl)c2)c(C)cn1 [I-96] | 96% | 6.00 to 7.00
16 | CC(=O)Nc1cc(-c2cc(C(N)=O)n(-c3ccccc3Cl)c2)c(C)cn1 [I-97, 4-(2-acetamido-5-methylpyridin-4-yl)-1-(2-chlorophenyl)-1H-pyrrole-2-carboxamide] | 96% | 6.00 to 7.00
17 | Cc1cnc(NC(=O)C2CC2)cc1-c1cc(-c2nc[nH]n2)n(-c2ccccc2Cl)c1 [I-98, N-{4-[1-(2-chlorophenyl)-5-(1H-1,2,4-triazol-3-yl)-1H-pyrrol-3-yl]-5-methylpyridin-2-yl}cyclopropanecarboxamide] | > 99% | > 7.00
18 | Cc1cnc(NC(=O)C2CC2)cc1-c1cc(C(N)=O)n(-c2ccccc2Cl)c1 [I-99, 1-(2-chlorophenyl)-4-{2-[(cyclopropylcarbonyl)amino]-5-methylpyridin-4-yl}-1H-pyrrole-2-carboxamide] | 93% | 6.00 to 7.00
19 | CCn1cc(C(N)=O)cc1-c1ccnc(NC(C)=O)c1 [I-100, 5-(2-acetamidopyridin-4-yl)-1-ethyl-1H-pyrrole-3-carboxamide] | 54% | 6.00 to 7.00
20 | CC(=O)Nc1cc(-c2cc(-c3ccccc3C)c(-c3nnc[nH]3)[nH]2)ccn1 [I-101, N-{4-[4-(2-methylphenyl)-5-(4H-1,2,4-triazol-3-yl)-1H-pyrrol-2-yl]pyridin-2-yl}acetamide] | 60% | 6.00 to 7.00
21 | CC(=O)Nc1cc(-c2cc(-c3ccccc3C)c(C(N)=O)[nH]2)ccn1 [I-102, 5-(2-acetamidopyridin-4-yl)-3-(2-methylphenyl)-1H-pyrrole-2-carboxamide] | 96% | 6.00 to 7.00
22 | CC(=O)Nc1cc(-c2cc(-c3ccccc3C)c(-c3nc[nH]n3)n2C)ccn1 [I-103, N-{4-[1-methyl-4-(2-methylphenyl)-5-(1H-1,2,4-triazol-3-yl)-1H-pyrrol-2-yl]pyridin-2-yl}acetamide] | 39% | 5.00 to 6.00
23 | CC(=O)Nc1cc(-c2cc(-c3ccccc3C)c(C(N)=O)n2C)ccn1 [I-104, 5-(2-acetamidopyridin-4-yl)-1-methyl-3-(2-methylphenyl)-1H-pyrrole-2-carboxamide] | 7% | 5.00 to 6.00
